Data reported in patent US20090062351A1, “Benzoyl amino pyridyl carboxylic acid derivatives useful as glucokinase (glk) activators” (priority 2003, published 2009).

Legend:
[1] = Plasma levels following oral administration to rats; assay type: in vivo; conditions: rat, including both bound and free, normalised dose of 1 mg compound per kilogram body weight
Method: Planetary Milled compounds [15 mins, 500 rpm, 5 Zirconium Balls, in a Puluerisette 7 Mill (Glen Creston Ltd, Stanmore, Middlesex, UK)] were suspended in 0.5% HPMC Tween and dosed to High Fat Fed (Research Diets, D12451, ad lib feeding 14 days) Female Alderley Park Zucker or Alderley Park Wistar rats at rate of 5 mls/kg, at doses between 0.3 and 10 mg/kg by oral gavage.
Samples of plasma were obtained either by conscious blood sampling or terminal blood sampling as follows:
Conscious blood sampling (for compound level or blood chemistry)—Intravenous blood samples were taken from tail vein using 600 μl Starstedt Multivette (EDTA) and 22 G needle at the required time point. […]
The reconstituted samples were then analysed using high performance liquid chromatography with tandem mass spectrometry detection (HPLC-MS-MS)”. […]
The concentration of test samples was determined from the ratio of the peak height of the test sample to the peak height of the internal standard. The concentration of the test sample was calculated with reference to a standard curve relating the ratio to the concentration prepared by using known concentrations of test sample added to samples of rat plasma using (3-isopropoxy-5-benzyoxy-benzoyl)amino pyridine 3-carboxylic acid as an internal standard, treated as described above.

glucokinase (GLK) = target: T1, glucokinase (GLK) (Homo sapiens, UniProt P35557); assay: biochemical
T1 sequence (P35557 1-466 isoform P35557-2): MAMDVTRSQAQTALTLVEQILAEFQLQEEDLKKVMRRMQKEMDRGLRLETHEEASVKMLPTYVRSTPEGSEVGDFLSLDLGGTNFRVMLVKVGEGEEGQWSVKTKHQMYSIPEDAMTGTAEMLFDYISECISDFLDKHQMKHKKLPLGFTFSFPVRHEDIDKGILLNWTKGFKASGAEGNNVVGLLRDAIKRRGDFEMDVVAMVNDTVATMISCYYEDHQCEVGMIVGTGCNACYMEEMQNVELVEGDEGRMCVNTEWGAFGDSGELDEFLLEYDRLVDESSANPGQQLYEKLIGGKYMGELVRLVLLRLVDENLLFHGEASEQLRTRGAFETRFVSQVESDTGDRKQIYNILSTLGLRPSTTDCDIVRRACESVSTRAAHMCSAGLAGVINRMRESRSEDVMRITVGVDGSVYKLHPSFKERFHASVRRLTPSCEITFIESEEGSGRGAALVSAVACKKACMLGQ

[2] = Plasma protein binding by equilibrium dialysis; assay type: in vitro ADME; conditions: rat, 37° C., pH 7.4, read-out: % free in plasma
Method: The plasma protein binding of compounds was measured using the equilibrium dialysis technique (W. Lindner et al, J. Chromatography, 1996, 677, 1-28). Compound was dialysed at a concentration of 20 μM for 18 hours at 37° C. with plasma and isotonic phosphate buffer pH 7.4 (1 ml of each in the dialysis cell). A Spectrum® 20-cell equilibrium dialyser was used together with Teflon, semi-micro dialysis cells and Spectra/Por®2 membrane discs with a molecular weight cut off 12-14000 Dalton, 47 mm (supplied by PerBio Science UK Ltd, Tattenhall, Cheshire). Plasma and buffer samples are removed following dialysis and analysed using HPLCUV/MS (high performance liquid chromatography with UV and mass spec detection) to give the % free level in plasma.

Which “Peak Blood levels” value [1] does the source give for `COC[C@H](C)Oc1cc(OCC=C2CCCC2)cc(C(=O)Nc2ccc(C(=O)O)cn2)c1` [Example 2, 6-{[(3-[(2-cyclopentylideneethyl)oxy]-5-{[(1S)-1-methyl-2-(methyloxy)ethyl]oxy}phenyl)carbonyl]amino}pyridine-3-carboxylic acid] here?
Its value is 2.2 µM.

What about the EC50 (glucokinase (GLK)) of the same compound?
The EC50 was 78 nM.

And the fraction unbound at 18 h, 20 μM [2]?
Its fraction unbound at 18 h, 20 μM is 0.0042.
